# Measurements as given in patent publication US20170015654A1, “PYRIDAZINE COMPOUND” (TAKEDA PHARMACEUTICAL COMPANY LIMITED, priority 2014, published 2017).
# How the values were obtained:
# [1] = target: T1, SCD (Rattus norvegicus, UniProt P07308); assay: Measurement of SCD inhibitory activity using microsome (TLC detection system); assay type: biochemical; conditions: 1 μM compound; rat liver microsome fraction; [14C]stearoyl-CoA; read-out: Rate of inhibition of SCD activity at compound concentration of 1 μM
# T1 construct: the obtained precipitate other than the glycogen layer was used as the microsome fraction; from tissue; host or cells: rat liver microsome fraction
# T1 sequence (P07308 1-358): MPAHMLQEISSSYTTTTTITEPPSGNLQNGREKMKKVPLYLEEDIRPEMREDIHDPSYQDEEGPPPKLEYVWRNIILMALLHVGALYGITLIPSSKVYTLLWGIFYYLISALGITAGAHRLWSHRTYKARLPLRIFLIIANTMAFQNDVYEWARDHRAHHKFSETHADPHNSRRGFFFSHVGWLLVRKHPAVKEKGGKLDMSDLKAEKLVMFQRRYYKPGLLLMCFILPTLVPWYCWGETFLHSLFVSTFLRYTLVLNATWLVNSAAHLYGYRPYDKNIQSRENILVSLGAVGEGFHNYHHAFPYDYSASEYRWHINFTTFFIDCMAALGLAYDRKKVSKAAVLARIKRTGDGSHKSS
# Protocol: Testing Method: Measurement of SCD Inhibitory Activity Using Microsome (TLC Detection System)
# A microsome fraction was produced and preserved as follows: first, the liver was excised from a rat, thoroughly washed with PBS and then chopped. A microsome preparation buffer (0.25 M sucrose, 10 mM Tris-HCl, pH 7.4, protease inhibitor cocktail (F. Hoffmann-La Roche, Ltd.)) was added to the chopped liver, and the cells were disrupted using a POLYTORON homogenizer on ice. The homogenate thus obtained by the disruption was centrifuged at 10,000×g at 4° C. for 30 minutes to collect a supernatant. The centrifugation operation described above was repeated again for the obtained supernatant to obtain a supernatant again. The obtained supernatant was centrifuged at 40,000×g at 4° C. for 60 minutes, and the obtained precipitate other than the glycogen layer was used as the microsome fraction. The protein concentration of the microsome fraction was measured using BCA Protein Assay Kit (Pierce/Thermo Fisher Scientific, Inc.), and the microsome fraction was cryopreserved at −80° C. until use.
# The SCD inhibitory activity of each test compound was measured as follows: first, the test compound was diluted into 10 mM with DMSO to obtain a primary dilution. The obtained primary dilution was diluted 3/1000 by the addition of 3× buffer (300 mM potassium phosphate, pH 7.4, 450 mM KCl, 30 mM NaF, 9 mM MgCl2, 4.5 mM glutathione reduced form (Wako Pure Chemical Industries, Ltd.), 0.3% BSA fatty acid free (Sigma-Aldrich Corp.) to obtain a secondary dilution. The secondary dilution was dispensed at 10 μL/well to a polypropylene 96-deep well block. Then, the microsome fraction diluted using a microsome buffer (10 mM Tris-HCl, pH 7.5, 250 mM sucrose) was added thereto at 10 μL/well (containing 10 μg of the protein). An enzyme reaction solution containing [^14C]stearoyl-CoA (American Radiolabeled Chemicals, Inc.) diluted into […] using 9 mM NADH (Sigma-Aldrich Corp.) was further added thereto at 10 μL/well. 30 minutes thereafter, 2.5 N NaOH was added thereto at 10 μL/well. After the completion of the addition, the deep well block was provided with a plate seal and then left standing overnight in a heat sterilizer set to 55° C. Subsequently to the standing, fatty acid extraction from the sample was carried out in accordance with the Bligh & Dyer method. Specifically, 200 μL of a formic acid:methanol:chloroform (1:6:3) solution was added to the sample thus left standing, and then, the mixture was stirred while the single-layer state was maintained. Further, 120 μL of pure water was added to the mixture to separate it into two layers. After the separation, a 10 μL aliquot was separated from the lower layer, spotted on a reverse-phase TLC plate (RP-18, 1154230001, Merck KGaA), and developed with an acetonitrile:pure water:acetic acid (95:4.5:0.5) solution. After drying, the TLC plate was transferred to Imaging Plate (Fuji Photo Film) for 5 hours or longer. Detection was carried out using FLA7000 (GE Healthcare Japan Corp.), and the obtained spot images were digitalized using ImageQuant TL (GE Healthcare Japan Corp.) to determine the rate of inhibition of SCD activity (%).
# [2] = test system: human large intestine cancer cell line HCT116; assay: Antitumor effect on human large intestine cancer cell line HCT116 cancer-bearing mice; assay type: in vivo, mouse; conditions: 10 mg/kg, 2 doses per day, orally for 14 days; HCT116 cancer-bearing BALB/c nude mice; tumor growth vs control group
# Protocol: The compound of the present invention was evaluated for its antitumor effect on human large intestine cancer cell line HCT116 cancer-bearing mice by the following method.
# The human large intestine cancer cell line HCT116 (purchased from ATCC (American Type Culture Collection)) was transplanted to each 6-week-old BALB/c female nude mouse (BALB/cA Jcl nu/nu: CLEA Japan Inc.) by the subcutaneous injection of 1.0×10^6 cells. After the transplantation, successfully engrafted tumor was observed, and the tumor size was measured 10 to 14 days after the transplantation. The tumor volume was calculated according to the following expression:
# Tumor volume=Major axis×Minor axis×Minor axis×(½)
# Individuals in which the volume of the engrafted tumor reached approximately 150 mm^3 were selected and used in the experiment as groups each involving 5 to 8 individuals. Each test compound was suspended in a 0.5% methylcellulose solution and orally administered to each individual for 14 days using the dose and the number of doses shown in the table below. Finally, in order to measure drug effects, the tumor volume was calculated from the tumor sizes at the day before the start of the administration and at the final day of the administration, and tumor growth in the test compound administration group compared with a control administration group given only a 0.5% methylcellulose solution was calculated as T/C according to the following expression:
# T/C (%)=(Tumor volume after the completion of the administration of the test compound administration group−Tumor volume at the day before the start of the administration of the test compound administration group)/(Tumor volume after the completion of the administration of the control administration group−Tumor volume at the day before the start of the administration of the control administration group)×100
Compound,inhibition at 1 µM [1] [%],T/C (%) [2] [%]
"N#CC1(c2ccc(S(F)(F)(F)(F)F)cc2)CCN(c2ccc(-c3nc(CO)ns3)nn2)CC1 [Example 108, 1-(6-(3-(Hydroxymethyl)-1,2,4-thiadiazol-5-yl)pyridazin-3-yl)-4-(4-(pentafluorosulfanyl)phenyl)piperidine-4-carbonitrile]",95,
"OCc1noc(-c2ccc(N3CCC(c4ccc(C(F)(F)F)cc4)(C(F)(F)F)CC3)nn2)n1 [Example 82, (5-(6-(4-(Trifluoromethyl)-4-(4-(trifluoromethyl)phenyl)piperidin-1-yl)pyridazin-3-yl)-1,2,4-oxadiazol-3-yl)methanol]",95,
"N#CC1(c2ccc(S(F)(F)(F)(F)F)cc2)CCN(c2ccc(-c3nnc(CO)o3)nn2)CC1 [Example 58, 1-(6-(5-(Hydroxymethyl)-1,3,4-oxadiazol-2-yl)pyridazin-3-yl)-4-(4-(pentafluorosulfanyl)phenyl)piperidine-4-carbonitrile]",92,86.2
"OCc1nnc(-c2ccc(N3CCC(c4ccc(C(F)(F)F)cc4)(C(F)(F)F)CC3)nn2)o1 [Example 84, (5-(6-(4-(Trifluoromethyl)-4-(4-(trifluoromethyl)phenyl)piperidin-1-yl)pyridazin-3-yl)-1,3,4-oxadiazol-2-yl)methanol]",93,58.4
"COC1(c2ccc(S(F)(F)(F)(F)F)cc2)CCN(c2ccc(-c3nnc(CO)o3)nn2)CC1 [Example 93, (5-(6-(4-Methoxy-4-(4-(pentafluorosulfanyl)phenyl)piperidin-1-yl)pyridazin-3-yl)-1,3,4-oxadiazol-2-yl)methanol]",94,58.1

# More lines, main results first:
inhibition at 1 µM [1] [%],Compound,T/C (%) [2] [%]
94,"COC1(c2ccc(S(F)(F)(F)(F)F)cc2)CCN(c2ccc(-c3nc(CO)ns3)nn2)CC1 [Example 110, (5-(6-(4-Methoxy-4-(4-(pentafluorosulfanyl)phenyl)piperidin-1-yl)pyridazin-3-yl)-1,2,4-thiadiazol-3-yl)methanol]",64.8
96,"COC1(c2ccc(S(F)(F)(F)(F)F)cc2)CCN(c2ccc(-c3nnc(CO)s3)nn2)CC1 [Example 111, (5-(6-(4-Methoxy-4-(4-(pentafluorosulfanyl)phenyl)piperidin-1-yl)pyridazin-3-yl)-1,3,4-thiadiazol-2-yl)methanol]",
93,"N#CC1(c2ccc(S(F)(F)(F)(F)F)cc2)CCN(c2ccc(-c3nnc(CO)s3)nn2)CC1 [Example 109, 1-(6-(5-(Hydroxymethyl)-1,3,4-thiadiazol-2-yl)pyridazin-3-yl)-4-(4-(pentafluorosulfanyl)phenyl)piperidine-4-carbonitrile]",
95,"OCc1nnc(-c2ccc(N3CCC(c4ccc(C(F)(F)F)cc4)(C(F)(F)F)CC3)nn2)s1 [Example 113, (5-(6-(4-(Trifluoromethyl)-4-(4-(trifluoromethyl)phenyl)piperidin-1-yl)pyridazin-3-yl)-1,3,4-thiadiazol-2-yl)methanol]",67.8
96,"OCc1nsc(-c2ccc(N3CCC(c4ccc(C(F)(F)F)cc4)(C(F)(F)F)CC3)nn2)n1 [Example 112, (5-(6-(4-(Trifluoromethyl)-4-(4-(trifluoromethyl)phenyl)piperidin-1-yl)pyridazin-3-yl)-1,2,4-thiadiazol-3-yl)methanol]",53.7
